Measured values taken from patent US20180098970A1, “USE OF […] THE TREATMENT OF NEURO[…]” (Afecta Pharmaceuticals, Inc., priority 2008, published 2018).
Like-named read-outs stand apart in the source and are kept apart here.

Legend:
hDAT = target: T1, hDAT (Homo sapiens, UniProt Q01959); assay: competition binding assay, recombinant human DAT in HEK-293 cell membranes; details: [125I]RTI-55 0.2 nM, ± mean standard error, 3 trials, read-out: Inhibition of binding at human monoamine transporters (Ki) hDAT
T1 construct: expressed in transfected cells; host or cells: HEK-293 (HEK-hDAT), membranes
Source text: (§1) These transporters control the amount of the three monoamines in the TMMS and therefore regulate fast excitatory and inhibitory neurotransmission in the CNS. Thus, the relative amounts of all three of these monoamines in the TMMS of brain controls mammalian neurobehaviors. To determine the Ki of the representative compounds; recombinant human monoamine transporters (DAT, SERT and NET) were expressed in HEK-293 cells as described in Eshleman et al. (1999). The HEK-hDAT, HEK-hSERT and HEK-hNET cells were incubated in modified Eagle's medium or Dulbecco's modified Eagle's medium exactly as described by Eshleman et al. Cells were grown until confluent on 150 mm diameter tissue culture dishes in a humidified 10% CO2 environment at 37° C. […] Paroxetine (SERT), [125sup I] RTI-55 binding (DAT) and (NET). The binding assays contained an aliquot of membranes prepared from the HEK cell lines expressing the recombinant human transporters (≈12-30 μg protein, depending on the cell line, adjusted to bind <10% of the total radioactivity added to the assay), [125supI] RTI-55 (0.2 nM final concentration) or [3supH] Paroxetine (0.4 nM final concentration) along with Krebs-HEPES assay buffer to yield a final volume of 250 μL. Specific binding was defined as the difference in binding observed in the presence and absence of 10 μM nomifensine (HEK-hDAT), 10 uM desipramine HEK-NET) or 10 μM imipramine (HEK-hSERT). The reaction was incubated for 90 min at room temperature in the dark and was terminated by vacuum filtration. Competition experiments were conducted with duplicate determinations.

hNET = target: T2, hNET (Homo sapiens, UniProt P23975); assay: competition binding assay, recombinant human NET in HEK-293 cell membranes
T2 construct: expressed in transfected cells; host or cells: HEK-293 (HEK-hNET), membranes
Source text: as §1

hSERT = target: T3, hSERT (Homo sapiens, UniProt P31645); assay: competition binding assay, recombinant human SERT in HEK-293 cell membranes
T3 construct: expressed in transfected cells; host or cells: HEK-293 (HEK-hSERT), membranes
Source text: as §1

Tourette syndrome = assay: clinical case study, Tourette syndrome with ADHD (Example 4); assay type: in vivo, human; details: patient, Mazindol 7.5 mg per day started
Protocol: patient one is a person. They began to have constant vocal tics. Motor tics started […], consisting of licking their lips, rolling their eyes, hand and foot tics. They were diagnosed as having Tourette syndrome. […], the major problems were with their tics, outbursts and lack of control. Despite treatment with methylphenidate 20 mg twice a day (bid), haloperidol 0.5 mg and paroxetine 10 mg, they were in special school and was suffering from uncountable motor and vocal tics everyday during waking hours and with outbursts of shouting, coprolalia and episodes of self-mutilation. coprolabia, lying, hitting things and people, and extremely oppositional.

chronic fatigue syndrome = assay: clinical case study, chronic fatigue syndrome (Example 5); assay type: in vivo, human; details: person, Mazindol 5.0 mg per day, after 10 days of therapy
Source text: P. C. a person had suffered from chronic fatigue syndrome, “chemical sensitivity and for one year with marked fatigue each day beginning in the early or mid afternoon. There has been some accompanying muscle aching, but no symptoms of central neurosystem involvement. Their functioning at work and at home had been seriously impaired. EBV titers were positive.

dementia = assay: clinical case study, dementia with motor impairment (Example 7); assay type: in vivo, human; details: person, Mazindol 8 mg per day, after 2 weeks of treatment
Source text: R 0 is a person had suffered from motor impairment and cognitive decline. They developed frank dementia and required institutionalization and nursing care. […] Based on reports by their care givers their became more aware of surrounding and was able to recognize family member for the first time in one year and was not “hearing and seeing things that were not there”.

[1] = test system: reward deficiency disorder; assay: clinical case study, reward deficiency disorder (Example 6); assay type: in vivo, human; details: person, Mazindol 2 mg BID, over several weeks
Source text: W. K. a person had suffered from alcohol abuse, sexual addiction and pathologic gambling for 10 years. They had been in counseling, Alcoholic Anonymous, Gamblers Anonymous on and off over the past 10 years with minimal effects. They had lost their marriage and several jobs as result of their behavioral problems. They had been treated with antidepressants, but they had been of little help. […] In addition, they reported that the thrill they have always gotten from gambling was no long present and they no longer felt compulsion to gamble.

symptoms of ADHD = assay: clinical case study, ADHD (Example 3); assay type: in vivo, human
Source text: patient two is a person. […], they were also being treated with risperidone which continued for 2 years. […] Subsequently, the risperidone was then completely discontinued without any recurrence of symptoms of ADHD (i.e. poor attention span, hyperactivity, or inappropriate behavior).

[2] = test system: obsessive compulsive behavior; assay: clinical case study, obsessive compulsive behavior (Example 8); assay type: in vivo, human; details: person, Mazindol 5 mg per day
Source text: patient five is a person who developed compulsive behaviors after the birth of their first child. […] They washed all food even if it had been pre-packaged and placed in specific foods in specific locations in their pantry and refrigerator which they were sure were the “safest: They wore gloves when they left the house and made […] children do so as well. They sprayed disinfectant on everything […] or […] children came in contact with and refused in eat in restaurants. Prior to their pregnancy they had been diagnosed with polycystic ovary disease and need treatment in order to conceive. They were told that they were also “borderline diabetic”. […] Shortly, after beginning their therapy they reported that “mood was better” and they didn't “feel anxious” about bacteria anymore. After three weeks of therapy with Mazindol they stopped wearing gloves (and forcing […] children to do so) and using disinfectant. Their spouse reported that they were a “new […]” and they were no allowed to put the groceries away without having to place it in particular places.

[3] = [125I]RTI-55 0.2 nM, HEK-hNET membranes, ± mean standard error, 3 trials, read-out: Inhibition of binding at human monoamine transporters (Ki) hNET
[4] = [3H]Paroxetine 0.4 nM, HEK-hSERT membranes, ± mean standard error, 3 trials, read-out: Inhibition of binding at human monoamine transporters (Ki) hSERT

T1 sequence (Q01959 whole entry): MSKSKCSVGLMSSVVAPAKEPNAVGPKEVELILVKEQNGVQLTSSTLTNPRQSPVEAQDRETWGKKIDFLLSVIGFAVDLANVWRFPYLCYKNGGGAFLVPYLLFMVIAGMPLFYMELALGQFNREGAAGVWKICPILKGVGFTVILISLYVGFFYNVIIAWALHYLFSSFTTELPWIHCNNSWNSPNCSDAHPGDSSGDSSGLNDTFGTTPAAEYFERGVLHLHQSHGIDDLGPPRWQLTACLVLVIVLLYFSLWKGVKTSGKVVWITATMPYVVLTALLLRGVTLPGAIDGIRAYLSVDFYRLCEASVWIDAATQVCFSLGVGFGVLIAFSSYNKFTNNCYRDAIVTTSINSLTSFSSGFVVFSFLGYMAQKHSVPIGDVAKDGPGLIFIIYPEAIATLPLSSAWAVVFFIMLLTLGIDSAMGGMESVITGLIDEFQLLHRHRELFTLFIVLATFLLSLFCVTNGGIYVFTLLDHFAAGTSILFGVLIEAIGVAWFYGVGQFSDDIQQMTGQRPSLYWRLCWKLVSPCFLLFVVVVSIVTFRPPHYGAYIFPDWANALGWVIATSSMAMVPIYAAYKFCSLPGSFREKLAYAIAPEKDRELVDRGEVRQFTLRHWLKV
T3 sequence (P31645 whole entry): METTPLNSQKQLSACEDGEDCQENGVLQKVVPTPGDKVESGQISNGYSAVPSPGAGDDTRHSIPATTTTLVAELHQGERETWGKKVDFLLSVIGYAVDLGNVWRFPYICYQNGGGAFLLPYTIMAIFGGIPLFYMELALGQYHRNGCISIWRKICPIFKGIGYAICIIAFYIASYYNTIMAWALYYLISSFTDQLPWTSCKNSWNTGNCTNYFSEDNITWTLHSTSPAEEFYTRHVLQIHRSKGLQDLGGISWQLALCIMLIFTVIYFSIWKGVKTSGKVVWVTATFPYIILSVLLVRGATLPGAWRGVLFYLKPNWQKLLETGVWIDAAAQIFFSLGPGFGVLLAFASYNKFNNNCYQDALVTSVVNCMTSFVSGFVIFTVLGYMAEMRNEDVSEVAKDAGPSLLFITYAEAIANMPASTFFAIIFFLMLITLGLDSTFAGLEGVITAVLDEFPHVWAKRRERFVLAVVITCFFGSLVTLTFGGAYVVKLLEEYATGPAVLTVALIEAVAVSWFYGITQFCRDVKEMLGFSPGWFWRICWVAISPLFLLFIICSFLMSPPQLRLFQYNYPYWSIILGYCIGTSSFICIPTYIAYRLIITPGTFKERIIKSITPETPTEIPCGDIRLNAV
T2 sequence (P23975 whole entry): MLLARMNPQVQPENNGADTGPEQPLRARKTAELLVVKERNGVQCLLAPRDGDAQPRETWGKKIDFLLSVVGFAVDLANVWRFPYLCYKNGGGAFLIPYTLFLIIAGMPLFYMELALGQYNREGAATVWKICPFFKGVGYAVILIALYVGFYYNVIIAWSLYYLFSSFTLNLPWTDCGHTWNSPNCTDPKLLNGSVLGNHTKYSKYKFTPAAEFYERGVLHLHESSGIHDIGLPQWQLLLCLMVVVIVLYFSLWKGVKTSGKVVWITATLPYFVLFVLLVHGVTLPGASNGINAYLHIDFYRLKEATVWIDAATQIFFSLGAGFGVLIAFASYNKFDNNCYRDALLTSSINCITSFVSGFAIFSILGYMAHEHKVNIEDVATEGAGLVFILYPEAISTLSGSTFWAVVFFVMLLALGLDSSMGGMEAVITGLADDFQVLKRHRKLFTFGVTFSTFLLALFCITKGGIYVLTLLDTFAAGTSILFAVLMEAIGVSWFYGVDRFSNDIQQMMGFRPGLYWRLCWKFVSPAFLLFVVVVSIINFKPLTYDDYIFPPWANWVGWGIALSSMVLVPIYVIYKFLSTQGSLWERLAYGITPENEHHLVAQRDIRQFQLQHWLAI

| SMILES | Ki (hDAT) | Ki (hNET; [3]) | Ki (hSERT; [4]) | clinical response of tics, outbursts and related symptoms (Tourette syndrome) | clinical response of fatigue and muscle ache (chronic fatigue syndrome) | clinical response of motor function and dementia (dementia) | Ki (hNET) | clinical response of drinking and gambling behavior [1] | recurrence of ADHD symptoms on maintenance (symptoms of ADHD; Mazindol 2.5 mg/day as sole agent, over the next 3 years) | clinical response of ADHD symptoms (symptoms of ADHD; patient, Mazindol 2.5 mg BID started, within 2 months) | Ki (hSERT) | clinical response of obsessive compulsive behavior [2] |
| --- | --- | --- | --- | --- | --- | --- | --- | --- | --- | --- | --- | --- |
| OC1(c2ccc(Cl)c(Cl)c2)c2ccccc2C2=NCCN21 (stereo not drawn) [Cpd 1, 5-(3,4-dichlorophenyl)-2,5-dihydro-5H-imidazo(2,1-a)isoindol-5-ol] | 25 ± 4.8 nM | 363 ± 41 nM | 101 ± 7.9 nM | – | – | – | – | – | – | – | – | – |
| Clc1ccc(C2c3ccccc3C3=NCCN32)cc1 (stereo not drawn) [Cpd 2, 5-(4-Chlorophenyl)-2,5-dihydro-5H-imidazo(2,1-a)is oindole] | 45 ± 11 nM | 56 ± 19 nM | 14 ± 5 nM | – | – | – | – | – | – | – | – | – |
| Clc1ccc(C2c3ccccc3C3=NCCN32)cc1 (stereo not drawn) [Cpd 3, 5-(4-Chlorophenyl)-2,3-dihydro-5H-imidazo (2,1-a)is oindole] | 111 ± 7.3 nM | 89 ± 18 nM | 312 ± 45 nM | – | – | – | – | – | – | – | – | – |
| OC1(c2ccc(Cl)cc2)c2ccccc2C2=NCCN21 (stereo not drawn) [mazindol, 5-(4-Chlorophenyl)-2,5-dihydro-5H-imidazo(2,1-a)is oindol-5-ol] | – | – | – | significant improvement in these symptoms | complete relief of their fatigue and muscle ache symptoms | improvement of their motor function, and their dementia | 24 ± 2 nM | able to completely stop drinking after 5 weeks | without the return of any symptoms of ADHD | improved attention span, loss of hyperactivity | 56 ± 9 nM | relief of their obsessive compulsive behavior |
